For six compounds, MIC results are on record in DBAASP.

In brackets after ≈: the same amount, converted by molar mass.

Assay in all cases: ≥ marks a high value that may be exact or a test limit, other limits are often not marked, values filed in µg/mL are converted to µM
The test system of assay [1] is Bacillus cereus ATCC 1015.
Assay [2] has as its system Leuconostoc mesenteroides ATCC 1059.
Assay [3] concerns Staphylococcus aureus MR.
Assay [4] concerns Staphylococcus epidermidis ATCC 1114.
The subject of assay [5] is Bacillus subtilis 168 HT.
The subject of assay [6] is Escherichia coli K12 MG1655.
Assay [7] has as its system Staphylococcus aureus ST88.
Assay [8] deals with Staphylococcus haemolyticus 527.
In assay [9] the test system is Escherichia coli NBRC 14237.
In assay [10] the test system is Pseudomonas aeruginosa NBRC 12582.
In assay [11] the test system is Staphylococcus aureus NBRC 12732.
The subject of assay [12] is Acinetobacter baumannii ATCC 19606.
The subject of assay [13] is Escherichia coli ATCC 25922.
Assay [14] relates to Klebsiella pneumoniae ATCC 700603.
Assay [15] deals with Klebsiella pneumoniae ATCC BAA-2146.
In assay [16] the test system is Pseudomonas aeruginosa ATCC 27853.
Assay [17] has as its system Pseudomonas aeruginosa FADDI-PA070.
In assay [18] the test system is Staphylococcus aureus ATCC 43300.
Assay [19] has as its system Staphylococcus aureus NRS 17.
Assay [20] concerns Staphylococcus aureus NRS 1.
The test system of assay [21] is Staphylococcus aureus VRSA10.
Assay [22] has as its system Staphylococcus aureus VRSA1.
The subject of assay [23] is Streptococcus pneumoniae ATCC 700677.
The test system of assay [24] is Cutibacterium acnes PCM 2334.
For assay [25], the system named is Cutibacterium acnes PCM 2400.
Assay [26] relates to Staphylococcus aureus ATCC 25923.
Assay [27] deals with Staphylococcus epidermidis ATCC 12228.
Assay [28] concerns Edwardsiella piscicida FSW 910410.
The subject of assay [29] is Streptococcus iniae FP5228.
For assay [30], the system named is Streptococcus parauberis KSP 28.
Assay [31] relates to Streptococcus parauberis PH0710.
The subject of assay [32] is Vibrio alginolyticus KCCM 2928.
The subject of assay [33] is Vibrio anguillarum TR14001NF.
Assay [34] concerns Vibrio campbellii KCCM 40684.
Assay [35] relates to Vibrio harveyi ATCC 14126.
The test system of assay [36] is Vibrio ordalii KCCM 41669.

Turning to `CC[C@H](C)[C@H](NC(=O)[C@H](CC(C)C)NC(=O)[C@@H]1CCCN1C(=O)[C@H](CC(C)C)NC(=O)[C@@H](N)Cc1ccccc1)C(=O)NCC(=O)N[C@@H](CCCCN)C(=O)N[C@@H](CC(C)C)C(=O)N[C@@H](CC(C)C)C(=O)N[C@@H](CO)C(=O)NCC(=O)N[C@@H](CC(C)C)C(=O)N[C@@H](Cc1ccc(O)cc1)C(N)=O` [FLPLIGKLLSGLY], the MIC – broadly, the lowest concentration found to suppress growth – in assay [1] turned out to be 20.9 µM (≈ 30 µg/mL); in [2], 6.97 µM (≈ 9.99 µg/mL); in assay [3], 20.9 µM (≈ 30 µg/mL); in [4], 20.9 µM (≈ 30 µg/mL).

With `CC[C@H](C)[C@H](NC(=O)[C@H](CCCCN)NC(=O)[C@@H](NC(=O)[C@@H](N)Cc1ccccc1)C(C)C)C(=O)N[C@@H](CC(C)C)C(=O)N[C@@H](C)C(=O)N[C@@H](CCCCN)C(=O)N[C@@H](CC(C)C)C(=O)N[C@H](C(=O)N[C@@H](CC(N)=O)C(=O)N[C@@H](Cc1ccc(O)cc1)C(=O)N[C@@H](C)C(=O)N[C@@H](CCCCN)C(=O)N[C@@H](CC(N)=O)C(=O)O)C(C)C` [FVKILAKLVNYAKN], the MIC in assay [5] is 19.8 µM (≈ 32.1 µg/mL); in [6], no less than 79 µM; in assay [7], no less than 100 µM; in [8], no less than 100 µM.

For the compound `CC(C)C[C@H](NC(=O)[C@@H](N)CCCCN)C(=O)N[C@@H](CCCCN)C(=O)N[C@H](C(=O)N[C@@H](Cc1c[nH]c2ccccc12)C(=O)N1CCC[C@H]1C(=O)N[C@@H](CCCCN)C(=O)N[C@@H](CC(N)=O)C(=O)N[C@@H](Cc1ccc(O)cc1)C(=O)N[C@@H](Cc1c[nH]c2ccccc12)C(=O)N[C@@H](CCCN=C(N)N)C(=O)N[C@@H](CCCCN)C(=O)N[C@H](C(=O)N[C@@H](Cc1c[nH]c2ccccc12)C(=O)N[C@@H](CO)C(=O)N[C@@H](CCCCN)C(=O)N[C@@H](CCCCN)C(=O)N[C@@H](CC(N)=O)C(=O)N[C@@H](Cc1c[nH]c2ccccc12)C(=O)N[C@@H](CCCN=C(N)N)C(=O)N[C@@H](CCCCN)C(=O)N[C@@H](Cc1ccccc1)C(=O)N[C@H](C(=O)N[C@@H](CCCCN)C(=O)N[C@@H](CCCCN)C(=O)N[C@@H](Cc1ccccc1)C(=O)N[C@@H](CCCCN)C(=O)N[C@@H](Cc1cnc[nH]1)C(=O)N[C@@H](Cc1c[nH]c2ccccc12)C(=O)O)C(C)C)C(C)C)[C@@H](C)O` [KLKTWPKNYWRKVWSKKNWRKFVKKFKHW], the MIC in assay [9], in [10] and in assay [11] was 3.12 µM (≈ 12.4 µg/mL) in each case.

Consider `CC[C@H](C)[C@H](NC(=O)[C@@H](N)CC(C)C)C(=O)NCC(=O)N[C@@H](CC(C)C)C(=O)N[C@H](C(=O)N[C@@H](CO)C(=O)N[C@@H](CCCCN)C(=O)NCC(=O)N[C@H](C(=O)N[C@@H](CO)C(=O)N[C@H](C(=O)N[C@@H](CC(C)C)C(=O)N[C@H](C(=O)N[C@@H](CCCCN)C(=O)N[C@H](C(=O)N[C@H](C(=O)N[C@@H](CO)C(=O)N[C@@H](CCCCN)C(=O)N[C@@H](CCCCN)C(=O)N[C@H](C(=O)N[C@@H](CC(C)C)C(=O)N[C@@H](CCCCN)C(=O)N[C@@H](CCC(N)=O)C(N)=O)C(C)C)C(C)C)[C@@H](C)O)C(C)C)C(C)C)[C@@H](C)O)C(C)C` [LIGLVSKGTSVLVKTVSKKVLKQ], for which the MIC in assay [12] is greater than 9.6 µM; in assay [13], greater than 9.6 µM; in assay [14], greater than 9.6 µM; in [15] it was 9.6 µM (≈ 23.3 µg/mL); in assay [16], greater than 9.6 µM; in assay [17], 9.6 µM (≈ 23.3 µg/mL). Moreover, the MIC in assay [18] was greater than 9.6 µM; in [19], 9.6 µM (≈ 23.3 µg/mL); in assay [20], 9.6 µM (≈ 23.3 µg/mL); in assay [21], 9.6 µM (≈ 23.3 µg/mL); in [22] it was 9.6 µM (≈ 23.3 µg/mL); in [23], 9.6 µM (≈ 23.3 µg/mL).

Turning to `CC(C)C[C@H](NC(=O)[C@H](CO)NC(=O)[C@H](CCCCN)NC(=O)[C@H](CO)NC(=O)[C@H](C)NC(=O)[C@H](Cc1ccccc1)NC(=O)[C@H](Cc1ccccc1)NC(=O)[C@H](CCCN=C(N)N)NC(=O)CNC(=O)[C@H](Cc1ccc(O)cc1)NC(=O)[C@H](CC(=O)O)NC(=O)[C@H](CS)NC(=O)[C@H](CCCN=C(N)N)NC(=O)[C@@H](N)CC(C)C)C(=O)N[C@@H](Cc1ccc(O)cc1)C(=O)N[C@@H](CC(=O)O)C(=O)N1CCC[C@H]1C(=O)N[C@@H](CC(C)C)C(=O)N[C@@H](CCCCN)C(=O)N[C@@H](CCCCN)C(=O)N[C@@H](CCCN=C(N)N)C(=O)N[C@@H](CCCN=C(N)N)C(=O)O` [LRCDYGRFFASKSLYDPLKKRR], the MIC was 11.5 µM (≈ 31.3 µg/mL) in assay [24]; 23 µM (≈ 62.5 µg/mL) in assay [25]; greater than 735 µM in assay [13]; greater than 735 µM in assay [16]; 91.9 µM (≈ 250 µg/mL) in assay [26]; 91.9 µM (≈ 250 µg/mL) in assay [27].

For the compound `CC(C)C[C@H](NC(=O)[C@H](Cc1cnc[nH]1)NC(=O)CNC(=O)[C@@H]1CCCN1C(=O)[C@@H](NC(=O)[C@H](CCC(N)=O)NC(=O)[C@H](Cc1cnc[nH]1)NC(=O)[C@H](CC(C)C)NC(=O)[C@@H](NC(=O)[C@H](CCCCN)NC(=O)[C@@H]1CCCN1C(=O)[C@H](CC(C)C)NC(=O)[C@@H](N)Cc1ccc(O)cc1)C(C)C)[C@@H](C)O)C(=O)N[C@@H](CCCCN)C(=O)N1CCC[C@H]1C(=O)O` [YLPKVLHQTPGHLKP], the minimum inhibitory concentration (MIC) in assay [28] was no less than 289 µM; in assay [29], no less than 51.1 µM; in assay [30], no less than 289 µM; in assay [31], no less than 205 µM; in [32], no less than 289 µM; in assay [33] it was no less than 289 µM. Also, the results for the minimal inhibitory concentration (MIC) in assay [34], in assay [35] and in assay [36] were no less than 289 µM, no less than 51.1 µM and no less than 289 µM, respectively.
